In the NIST ThermoML archive (doi:10.1016/j.jct.2006.02.001):
Numbers after ± are expanded uncertainties.

Legend:
[1] = refractive index (Na D-line) (dimensionless); xn = mol fraction of the nth substance listed; settings: 101 kPa, Liquid
[2] = xn = mol fraction of the nth substance listed; settings: 101 kPa, Liquid

Cc1ccccc1C [1,2-dimethylbenzene] + COc1ccccc1
x2 = 0
Settings | mass density, 288.15 K [kg/m3] | mass density, 293.15 K [kg/m3] | mass density, 298.15 K [kg/m3] | mass density, 303.15 K [kg/m3] | refractive index, 288.15 K | refractive index, 293.15 K | refractive index, 298.15 K | refractive index, 303.15 K
[1] | – | – | – | – | 1.5072 ± 0.0096 | 1.5047 ± 0.0096 | 1.5018 ± 0.0096 | 1.5 ± 0.0096
[2] | 883.29 ± 0.91 | 879.08 ± 0.92 | 875.53 ± 0.94 | 870.73 ± 0.95 | – | – | – | –

Cc1cc(C)cc(C)c1 [1,3,5-trimethylbenzene] + COc1ccccc1
Settings | mass density, 288.15 K [kg/m3] | mass density, 293.15 K [kg/m3] | mass density, 298.15 K [kg/m3] | mass density, 303.15 K [kg/m3] | refractive index, 288.15 K | refractive index, 293.15 K | refractive index, 298.15 K | refractive index, 303.15 K
[1], x2 = 0 | – | – | – | – | 1.5045 ± 0.0097 | 1.4993 ± 0.0096 | 1.4976 ± 0.0096 | 1.4948 ± 0.0096
[1], x2 = 0.1099 | – | – | – | – | 1.5063 ± 0.0097 | 1.5009 ± 0.0096 | 1.4991 ± 0.0096 | 1.4964 ± 0.0096
[1], x2 = 0.2441 | – | – | – | – | 1.5088 ± 0.0097 | 1.5029 ± 0.0096 | 1.5011 ± 0.0096 | 1.4984 ± 0.0096
[1], x2 = 0.3933 | – | – | – | – | 1.5116 ± 0.0097 | 1.5054 ± 0.0096 | 1.5033 ± 0.0096 | 1.5007 ± 0.0096
[1], x2 = 0.509 | – | – | – | – | 1.5142 ± 0.0097 | 1.5073 ± 0.0096 | 1.5052 ± 0.0096 | 1.5026 ± 0.0096
[1], x2 = 0.672 | – | – | – | – | 1.5175 ± 0.0097 | 1.5103 ± 0.0096 | 1.5079 ± 0.0096 | 1.5054 ± 0.0096
[1], x2 = 0.749 | – | – | – | – | 1.5193 ± 0.0097 | 1.5117 ± 0.0097 | 1.5093 ± 0.0096 | 1.5068 ± 0.0096
[1], x2 = 0.8397 | – | – | – | – | 1.5214 ± 0.0097 | 1.5136 ± 0.0097 | 1.511 ± 0.0096 | 1.5086 ± 0.0096
[1], x2 = 0.895 | – | – | – | – | 1.5228 ± 0.0097 | 1.5147 ± 0.0097 | 1.5121 ± 0.0096 | 1.5097 ± 0.0096
[1], x2 = 0.967 | – | – | – | – | 1.5247 ± 0.0098 | 1.5162 ± 0.0097 | 1.5135 ± 0.0096 | 1.5111 ± 0.0096
[2], x2 = 0 | 869.17 ± 0.97 | 865.07 ± 0.98 | 861.06 ± 1 | 856.95 ± 1 | – | – | – | –
[2], x2 = 0.1099 | 880.36 ± 0.92 | 876.24 ± 0.94 | 872.21 ± 0.95 | 868.07 ± 0.97 | – | – | – | –
[2], x2 = 0.2441 | 894.89 ± 0.86 | 890.7 ± 0.88 | 886.62 ± 0.9 | 882.42 ± 0.91 | – | – | – | –
[2], x2 = 0.3933 | 912.23 ± 0.79 | 907.95 ± 0.81 | 903.79 ± 0.83 | 899.5 ± 0.84 | – | – | – | –
[2], x2 = 0.509 | 926.57 ± 0.74 | 922.2 ± 0.75 | 917.98 ± 0.77 | 913.64 ± 0.79 | – | – | – | –
[2], x2 = 0.672 | 948.28 ± 0.65 | 943.8 ± 0.67 | 939.52 ± 0.68 | 935.05 ± 0.7 | – | – | – | –
[2], x2 = 0.749 | 959.22 ± 0.6 | 954.69 ± 0.62 | 950.34 ± 0.64 | 945.87 ± 0.65 | – | – | – | –
[2], x2 = 0.8397 | 972.73 ± 0.55 | 968.14 ± 0.57 | 963.75 ± 0.58 | 959.19 ± 0.6 | – | – | – | –
[2], x2 = 0.895 | 981.31 ± 0.51 | 976.67 ± 0.53 | 972.25 ± 0.55 | 967.63 ± 0.57 | – | – | – | –
[2], x2 = 0.967 | 992.94 ± 0.47 | 988.19 ± 0.49 | 983.74 ± 0.5 | 979.01 ± 0.52 | – | – | – | –

Cc1cccc(C)c1 [1,3-dimethylbenzene] + COc1ccccc1
x2 = 0
Settings | mass density, 288.15 K [kg/m3] | mass density, 293.15 K [kg/m3] | mass density, 298.15 K [kg/m3] | mass density, 303.15 K [kg/m3] | refractive index, 288.15 K | refractive index, 293.15 K | refractive index, 298.15 K | refractive index, 303.15 K
[1] | – | – | – | – | 1.4997 ± 0.0096 | 1.4973 ± 0.0096 | 1.4944 ± 0.0096 | 1.4925 ± 0.0096
[2] | 868.32 ± 0.89 | 864.05 ± 0.91 | 859.77 ± 0.93 | 855.47 ± 0.95 | – | – | – | –

Cc1ccc(C)cc1 [1,4-dimethylbenzene] + COc1ccccc1
x2 = 0
Settings | mass density, 288.15 K [kg/m3] | mass density, 293.15 K [kg/m3] | mass density, 298.15 K [kg/m3] | mass density, 303.15 K [kg/m3] | refractive index, 288.15 K | refractive index, 293.15 K | refractive index, 298.15 K | refractive index, 303.15 K
[1] | – | – | – | – | 1.4983 ± 0.0096 | 1.4958 ± 0.0096 | 1.4929 ± 0.0096 | 1.4915 ± 0.0096
[2] | 865.25 ± 0.91 | 860.92 ± 0.93 | 856.62 ± 0.94 | 852.25 ± 0.96 | – | – | – | –

COc1ccccc1 [anisole] + Cc1cc(C)cc(C)c1
x1 = 1
Settings | mass density, 288.15 K [kg/m3] | mass density, 293.15 K [kg/m3] | mass density, 298.15 K [kg/m3] | mass density, 303.15 K [kg/m3] | refractive index, 288.15 K | refractive index, 293.15 K | refractive index, 298.15 K | refractive index, 303.15 K
[1] | – | – | – | – | 1.5256 ± 0.0098 | 1.5169 ± 0.0097 | 1.5141 ± 0.0096 | 1.5117 ± 0.0096
[2] | 998.44 ± 0.45 | 993.65 ± 0.46 | 989.15 ± 0.48 | 984.37 ± 0.5 | – | – | – | –
